What was measured:
Details in all cases: Compound concentration 1000.0 nM
[1] = tested on: Tyrosine-protein kinase ABL1 (Homo sapiens), P00519 [Q252H]
[2] = tested on: Tyrosine-protein kinase ABL1 (Homo sapiens), P00519 [Y253F]
[3] = biological target: Tyrosine-protein kinase ABL1 (Homo sapiens) (UniProt P00519)
[4] = biological target: Activin receptor type-2A (Homo sapiens) (UniProt P27037)
[5] = biological target: Mitogen-activated protein kinase kinase kinase 5 (Homo sapiens) (UniProt Q99683)
[6] = biological target: Mitogen-activated protein kinase kinase kinase 6 (Homo sapiens) (UniProt O95382)
[7] = biological target: Bone morphogenetic protein receptor type-1B (Homo sapiens) (UniProt O00238)
Sequence of Bone morphogenetic protein receptor type-1B (Homo sapiens) (O00238 whole entry): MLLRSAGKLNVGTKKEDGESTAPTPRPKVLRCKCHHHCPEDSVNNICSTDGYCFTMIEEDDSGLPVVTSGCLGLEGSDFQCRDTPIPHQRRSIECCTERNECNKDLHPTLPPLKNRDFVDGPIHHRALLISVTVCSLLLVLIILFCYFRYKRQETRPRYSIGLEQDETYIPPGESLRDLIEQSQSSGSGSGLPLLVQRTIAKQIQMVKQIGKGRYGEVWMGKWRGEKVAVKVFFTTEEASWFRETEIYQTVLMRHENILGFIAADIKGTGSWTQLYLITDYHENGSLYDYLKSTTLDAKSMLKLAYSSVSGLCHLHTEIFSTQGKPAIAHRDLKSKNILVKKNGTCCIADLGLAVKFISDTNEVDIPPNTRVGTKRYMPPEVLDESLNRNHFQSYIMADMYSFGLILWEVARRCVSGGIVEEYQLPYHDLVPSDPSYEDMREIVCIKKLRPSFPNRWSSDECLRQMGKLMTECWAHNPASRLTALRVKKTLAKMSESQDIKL

[8] = biological target: Calcium/calmodulin-dependent protein kinase type 1G (Homo sapiens) (UniProt Q96NX5)
[9] = biological target: Calcium/calmodulin-dependent protein kinase type IV (Homo sapiens) (UniProt Q16566)
Sequence of Calcium/calmodulin-dependent protein kinase type IV (Homo sapiens) (Q16566 whole entry): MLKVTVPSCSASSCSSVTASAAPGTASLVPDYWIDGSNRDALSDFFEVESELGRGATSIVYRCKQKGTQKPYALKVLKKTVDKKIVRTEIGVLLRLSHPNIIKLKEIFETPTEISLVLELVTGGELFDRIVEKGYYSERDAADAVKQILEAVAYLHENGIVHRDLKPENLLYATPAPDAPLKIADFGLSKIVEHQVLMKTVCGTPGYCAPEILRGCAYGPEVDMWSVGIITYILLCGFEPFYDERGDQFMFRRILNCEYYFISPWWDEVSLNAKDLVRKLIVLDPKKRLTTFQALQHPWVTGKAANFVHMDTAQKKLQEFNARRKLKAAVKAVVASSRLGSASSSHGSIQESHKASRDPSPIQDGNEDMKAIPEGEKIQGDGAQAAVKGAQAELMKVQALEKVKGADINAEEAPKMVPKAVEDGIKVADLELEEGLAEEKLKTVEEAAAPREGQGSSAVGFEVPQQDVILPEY

[10] = biological target: Serine/threonine-protein kinase Chk1 (Homo sapiens) (UniProt O14757)
[11] = biological target: Dual specificity protein kinase CLK2 (Homo sapiens) (UniProt P49760)
Sequence of Dual specificity protein kinase CLK2 (Homo sapiens) (P49760 whole entry, looked up): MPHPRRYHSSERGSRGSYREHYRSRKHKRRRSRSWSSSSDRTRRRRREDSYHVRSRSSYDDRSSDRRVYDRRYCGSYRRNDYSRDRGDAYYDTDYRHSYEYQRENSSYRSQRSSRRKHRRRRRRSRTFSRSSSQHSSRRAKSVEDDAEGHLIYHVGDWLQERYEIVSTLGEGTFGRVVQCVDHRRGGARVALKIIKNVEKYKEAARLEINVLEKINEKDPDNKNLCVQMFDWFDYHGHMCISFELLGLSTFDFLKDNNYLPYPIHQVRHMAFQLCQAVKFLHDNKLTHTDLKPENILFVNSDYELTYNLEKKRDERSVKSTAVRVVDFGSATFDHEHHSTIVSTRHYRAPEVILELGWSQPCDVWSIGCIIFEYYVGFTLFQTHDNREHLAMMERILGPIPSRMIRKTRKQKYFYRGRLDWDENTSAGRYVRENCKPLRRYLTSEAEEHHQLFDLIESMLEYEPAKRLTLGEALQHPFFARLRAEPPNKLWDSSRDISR

[12] = biological target: Tyrosine-protein kinase CSK (Homo sapiens) (UniProt P41240)
[13] = biological target: Megakaryocyte-associated tyrosine-protein kinase (Homo sapiens) (UniProt P42679)
[14] = biological target: Death-associated protein kinase 1 (Homo sapiens) (UniProt P53355)
[15] = biological target: Death-associated protein kinase 3 (Homo sapiens) (UniProt O43293)
[16] = tested on: Epidermal growth factor receptor (Homo sapiens), P00533 [L861Q]
[17] = biological target: Mitogen-activated protein kinase 7 (Homo sapiens) (UniProt Q13164)
[18] = biological target: Mitogen-activated protein kinase 15 (Homo sapiens) (UniProt Q8TD08)
[19] = biological target: Fibroblast growth factor receptor 1 (Homo sapiens) (UniProt P11362)
[20] = biological target: Rhodopsin kinase GRK1 (Homo sapiens) (UniProt Q15835)
[21] = biological target: Tyrosine-protein kinase HCK (Homo sapiens) (UniProt P08631)
[22] = biological target: Serine/threonine-protein kinase ICK (Homo sapiens) (UniProt Q9UPZ9)
[23] = biological target: Mitogen-activated protein kinase 8 (Homo sapiens) (UniProt P45983)
[24] = tested on: Mast/stem cell growth factor receptor Kit (Homo sapiens), P10721 [L576P]
[25] = biological target: Mitogen-activated protein kinase kinase kinase 15 (Homo sapiens) (UniProt Q6ZN16)
[26] = biological target: Mitogen-activated protein kinase kinase kinase 2 (Homo sapiens) (UniProt Q9Y2U5)
Sequence of Mitogen-activated protein kinase kinase kinase 2 (Homo sapiens) (Q9Y2U5 whole entry): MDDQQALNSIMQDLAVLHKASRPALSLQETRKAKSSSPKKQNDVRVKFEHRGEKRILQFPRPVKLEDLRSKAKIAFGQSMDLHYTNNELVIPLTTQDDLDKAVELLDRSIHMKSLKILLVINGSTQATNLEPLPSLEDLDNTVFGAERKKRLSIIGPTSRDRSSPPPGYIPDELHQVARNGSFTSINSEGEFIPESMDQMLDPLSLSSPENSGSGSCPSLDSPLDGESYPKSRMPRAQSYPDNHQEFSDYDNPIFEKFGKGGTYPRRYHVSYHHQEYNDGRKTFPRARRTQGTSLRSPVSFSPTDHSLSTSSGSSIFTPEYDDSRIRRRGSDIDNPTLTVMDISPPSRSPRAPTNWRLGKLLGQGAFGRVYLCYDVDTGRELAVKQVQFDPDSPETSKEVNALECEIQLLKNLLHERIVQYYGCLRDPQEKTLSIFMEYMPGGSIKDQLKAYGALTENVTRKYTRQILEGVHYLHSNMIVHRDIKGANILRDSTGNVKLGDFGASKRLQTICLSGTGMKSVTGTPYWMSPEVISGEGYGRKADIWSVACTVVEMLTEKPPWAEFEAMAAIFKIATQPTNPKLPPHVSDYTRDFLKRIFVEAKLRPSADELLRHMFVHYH

[27] = biological target: Mitogen-activated protein kinase kinase kinase 3 (Homo sapiens) (UniProt Q99759)
[28] = biological target: Dual specificity mitogen-activated protein kinase kinase 1 (Homo sapiens) (UniProt Q02750)
[29] = biological target: Serine/threonine-protein kinase 3 (Homo sapiens) (UniProt Q13188)
Sequence of Serine/threonine-protein kinase 3 (Homo sapiens) (Q13188 whole entry): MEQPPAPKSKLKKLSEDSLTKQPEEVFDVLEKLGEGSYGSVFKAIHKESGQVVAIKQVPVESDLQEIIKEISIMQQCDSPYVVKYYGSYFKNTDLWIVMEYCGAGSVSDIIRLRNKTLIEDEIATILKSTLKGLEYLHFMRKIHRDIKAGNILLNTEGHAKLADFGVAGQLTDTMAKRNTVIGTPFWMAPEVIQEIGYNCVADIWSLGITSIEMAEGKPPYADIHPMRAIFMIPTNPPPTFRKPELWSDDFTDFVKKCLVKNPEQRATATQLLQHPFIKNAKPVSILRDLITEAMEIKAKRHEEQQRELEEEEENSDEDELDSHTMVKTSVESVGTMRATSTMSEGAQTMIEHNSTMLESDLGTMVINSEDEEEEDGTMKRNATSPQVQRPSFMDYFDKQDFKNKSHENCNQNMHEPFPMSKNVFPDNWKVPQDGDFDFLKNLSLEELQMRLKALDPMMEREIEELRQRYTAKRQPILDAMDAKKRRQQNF

[30] = biological target: Serine/threonine-protein kinase Nek1 (Homo sapiens) (UniProt Q96PY6)
[31] = biological target: Serine/threonine-protein kinase PAK 2 (Homo sapiens) (UniProt Q13177)
[32] = biological target: Serine/threonine-protein kinase PAK 3 (Homo sapiens) (UniProt O75914)
[33] = biological target: Cyclin-dependent kinase 18 (Homo sapiens) (UniProt Q07002)
[34] = biological target: Phosphatidylinositol 4-phosphate 3-kinase C2 domain-containing subunit beta (Homo sapiens) (UniProt O00750)
Sequence of Phosphatidylinositol 4-phosphate 3-kinase C2 domain-containing subunit beta (Homo sapiens) (O00750 whole entry, the tested form may be a part, canonical isoform): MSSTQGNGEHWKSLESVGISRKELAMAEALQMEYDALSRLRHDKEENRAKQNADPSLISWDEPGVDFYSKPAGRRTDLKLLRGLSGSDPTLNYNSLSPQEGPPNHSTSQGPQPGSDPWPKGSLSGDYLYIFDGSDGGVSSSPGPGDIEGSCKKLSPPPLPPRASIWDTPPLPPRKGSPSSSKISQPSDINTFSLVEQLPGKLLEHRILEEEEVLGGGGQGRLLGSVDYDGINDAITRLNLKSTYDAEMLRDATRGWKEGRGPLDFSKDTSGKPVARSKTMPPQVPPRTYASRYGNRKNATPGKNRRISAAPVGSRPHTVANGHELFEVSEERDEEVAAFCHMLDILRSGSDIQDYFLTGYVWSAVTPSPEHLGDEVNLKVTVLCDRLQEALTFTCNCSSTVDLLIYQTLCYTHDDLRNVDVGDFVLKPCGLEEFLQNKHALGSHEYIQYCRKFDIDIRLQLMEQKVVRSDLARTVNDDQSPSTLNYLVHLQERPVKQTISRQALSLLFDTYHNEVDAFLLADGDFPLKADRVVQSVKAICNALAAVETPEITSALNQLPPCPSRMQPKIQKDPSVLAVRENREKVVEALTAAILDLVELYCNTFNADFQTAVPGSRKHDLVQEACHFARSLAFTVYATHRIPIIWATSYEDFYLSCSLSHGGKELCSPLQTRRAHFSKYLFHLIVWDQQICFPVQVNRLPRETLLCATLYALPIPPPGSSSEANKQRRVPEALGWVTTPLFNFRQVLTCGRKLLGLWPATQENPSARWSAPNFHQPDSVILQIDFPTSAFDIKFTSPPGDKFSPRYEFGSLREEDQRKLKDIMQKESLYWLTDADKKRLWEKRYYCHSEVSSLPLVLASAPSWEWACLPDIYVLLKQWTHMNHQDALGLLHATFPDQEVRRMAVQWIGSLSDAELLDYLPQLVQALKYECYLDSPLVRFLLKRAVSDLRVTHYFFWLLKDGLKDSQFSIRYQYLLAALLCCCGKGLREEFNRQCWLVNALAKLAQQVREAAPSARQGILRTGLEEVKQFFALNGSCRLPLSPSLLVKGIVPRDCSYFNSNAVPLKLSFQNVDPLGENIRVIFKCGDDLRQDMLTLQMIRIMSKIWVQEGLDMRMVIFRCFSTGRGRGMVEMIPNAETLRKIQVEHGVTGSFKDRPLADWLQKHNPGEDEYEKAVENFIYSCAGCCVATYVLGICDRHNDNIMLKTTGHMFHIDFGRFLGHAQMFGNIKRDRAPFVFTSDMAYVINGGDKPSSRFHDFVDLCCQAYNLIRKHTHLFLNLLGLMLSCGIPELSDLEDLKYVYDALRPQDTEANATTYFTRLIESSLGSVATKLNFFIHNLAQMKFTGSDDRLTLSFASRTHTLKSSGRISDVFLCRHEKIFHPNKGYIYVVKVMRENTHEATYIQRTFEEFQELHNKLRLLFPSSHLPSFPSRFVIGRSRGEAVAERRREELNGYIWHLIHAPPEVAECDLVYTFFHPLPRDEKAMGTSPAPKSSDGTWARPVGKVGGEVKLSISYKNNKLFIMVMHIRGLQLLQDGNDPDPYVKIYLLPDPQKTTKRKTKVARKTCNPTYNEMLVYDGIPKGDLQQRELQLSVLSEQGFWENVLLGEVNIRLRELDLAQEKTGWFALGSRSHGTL

[35] = tested on: Phosphatidylinositol 4,5-bisphosphate 3-kinase catalytic subunit alpha isoform (Homo sapiens), P42336 [C420R]
[36] = biological target: Serine/threonine-protein kinase PLK1 (Homo sapiens) (UniProt P53350)
[37] = biological target: Serine/threonine-protein kinase PLK2 (Homo sapiens) (UniProt Q9NYY3)
[38] = biological target: Receptor-interacting serine/threonine-protein kinase 1 (Homo sapiens) (UniProt Q13546)
[39] = biological target: Proto-oncogene tyrosine-protein kinase ROS (Homo sapiens) (UniProt P08922)
[40] = biological target: Ribosomal protein S6 kinase beta-1 (Homo sapiens) (UniProt P23443)
[41] = biological target: SNF-related serine/threonine-protein kinase (Homo sapiens) (UniProt Q9NRH2)
[42] = biological target: Serine/threonine-protein kinase tousled-like 1 (Homo sapiens) (UniProt Q9UKI8)
[43] = biological target: Serine/threonine-protein kinase TNNI3K (Homo sapiens) (UniProt Q59H18)
[44] = biological target: Tyrosine-protein kinase TXK (Homo sapiens) (UniProt P42681)
[45] = biological target: Serine/threonine-protein kinase WNK3 (Homo sapiens) (UniProt Q9BYP7)

Sequence of Activin receptor type-2A (Homo sapiens) (P27037 whole entry): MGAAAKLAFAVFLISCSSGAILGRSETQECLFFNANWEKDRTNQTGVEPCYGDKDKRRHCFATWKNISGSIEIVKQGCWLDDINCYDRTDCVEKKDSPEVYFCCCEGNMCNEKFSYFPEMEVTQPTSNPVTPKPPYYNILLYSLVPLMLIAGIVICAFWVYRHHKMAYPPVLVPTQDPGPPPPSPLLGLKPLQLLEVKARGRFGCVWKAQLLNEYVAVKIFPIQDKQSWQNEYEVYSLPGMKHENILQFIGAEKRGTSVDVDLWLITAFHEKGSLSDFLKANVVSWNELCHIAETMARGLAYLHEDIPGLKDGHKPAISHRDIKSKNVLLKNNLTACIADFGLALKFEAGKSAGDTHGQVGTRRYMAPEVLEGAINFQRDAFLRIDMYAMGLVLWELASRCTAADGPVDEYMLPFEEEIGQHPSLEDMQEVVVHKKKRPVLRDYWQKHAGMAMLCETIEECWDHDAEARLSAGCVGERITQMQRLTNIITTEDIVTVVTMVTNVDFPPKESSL

SMILES: COc1ccc2c(O[C@@H]3C[C@H]4C(=O)N[C@]5(C(=O)O)CC5/C=C\CCCCC[C@H](NC(=O)OC5CCCC5)C(=O)N4C3)cc(-c3csc(NC(=O)C(C)C)n3)nc2c1C (stereo not given in full) [BI 1230]
- residual activity [1]: 80%
- residual activity [2]: 87%
- residual activity [3]: 93%
- residual activity [4]: 72%
- residual activity [5]: 93%
- residual activity [6]: 98%
- residual activity [7]: 77%
- residual activity [8]: 98%
- residual activity [9]: 95%
- residual activity [10]: 100%
- residual activity [11]: 100%
- residual activity [12]: 100%
- residual activity [13]: 50%
- residual activity [14]: 100%
- residual activity [15]: 100%
- residual activity [16]: 100%
- residual activity [17]: 100%
- residual activity [18]: 100%
- residual activity [19]: 98%
- residual activity [20]: 100%
- residual activity [21]: 100%
- residual activity [22]: 68%
- residual activity [23]: 81%
- residual activity [24]: 90%
- residual activity [25]: 70%
- residual activity [26]: 100%
- residual activity [27]: 79%
- residual activity [28]: 85%
- residual activity [29]: 86%
- residual activity [30]: 100%
- residual activity [31]: 91%
- residual activity [32]: 100%
- residual activity [33]: 100%
- residual activity [34]: 82%
- residual activity [35]: 100%
- residual activity [36]: 77%
- residual activity [37]: 69%
- residual activity [38]: 100%
- residual activity [39]: 100%
- residual activity [40]: 93%
- residual activity [41]: 80%
- residual activity [42]: 100%
- residual activity [43]: 100%
- residual activity [44]: 86%
- residual activity [45]: 100%

SMILES: O=C(N[C@H]1CCCCC/C=C\C2C[C@@]2(C(=O)O)NC(=O)[C@@H]2C[C@@H](Oc3ccncc3)CN2C1=O)OC1CCCC1 (stereo not given in full) [BI 1675]
- residual activity [1]: 85%
- residual activity [2]: 100%
- residual activity [3]: 97%
- residual activity [4]: 96%
- residual activity [5]: 91%
- residual activity [6]: 100%
- residual activity [7]: 95%
- residual activity [8]: 76%
- residual activity [9]: 90%
- residual activity [10]: 79%
- residual activity [11]: 100%
- residual activity [12]: 96%
- residual activity [13]: 41%
- residual activity [14]: 83%
- residual activity [15]: 100%
- residual activity [16]: 100%
- residual activity [17]: 90%
- residual activity [18]: 100%
- residual activity [19]: 100%
- residual activity [20]: 100%
- residual activity [21]: 100%
- residual activity [22]: 85%
- residual activity [23]: 86%
- residual activity [24]: 91%
- residual activity [25]: 68%
- residual activity [26]: 69%
- residual activity [27]: 89%
- residual activity [28]: 92%
- residual activity [29]: 76%
- residual activity [30]: 100%
- residual activity [31]: 79%
- residual activity [32]: 88%
- residual activity [33]: 92%
- residual activity [34]: 84%
- residual activity [35]: 100%
- residual activity [36]: 71%
- residual activity [37]: 93%
- residual activity [38]: 88%
- residual activity [39]: 92%
- residual activity [40]: 89%
- residual activity [41]: 97%
- residual activity [42]: 82%
- residual activity [43]: 100%
- residual activity [44]: 87%
- residual activity [45]: 100%
